This is an account of results in patent US20250032425A1, “FIRST IN CLASS USE OF ESTROGEN RECEPTOR BETA AGONISTS IN TREATING ANGELMAN SYNDROME AND RELEVANT AUTISM SPECTRUM DISORDERS” (BROWN UNIVERSITY, priority 2023, published 2025).

In assay [1] the test system is rat primary OPCs deficient in UBE3A. Kind of assay: Ki67 immunoblotting in primary rat OPCs with Ube3A siRNA knockdown. Type of assay: cell-based. To be noted: siUBE3A; 10 μM over 24 hours; vs siUBE3A alone. As for the experimental part:
OPC purification followed our protocol previously described in Mei et al., 2016 (Identification of the Kappa-Opioid Receptor as a Therapeutic Target for Oligodendrocyte Remyelination. J Neurosci 36, 7925-7935), isolating cells from day 7 postnatal rat cortical hemispheres. The process began with mechanical dissection and papain digestion at 37° C. for 75 minutes, with occasional shaking. After trituration, cells were processed through immunopanning with 0.2% BSA, involving 30 minutes of negative and 45 minutes of positive selection. Selection plates were pre-treated with secondary antibodies and incubated with primary antibodies Ran-2, Gal-C (for negative) and O4 (for positive selection). Trypsin dissociated OPCs from the selection dish, and the reaction was stopped with 30% FBS, achieving >95% purity. OPCs were then plated on poly-1-lysine-coated coverslips in a nutrient-rich medium and incubated at 37° C. and 5% CO2 overnight. Post PDGF-AA removal, OPCs received either compound or control treatments for 2 days, with vehicle controls adjusted to match treatment concentrations.
The siRNAs targeting UBE3A (Thermo Fisher, #4390815 and #4390816), estrogen receptors (Thermo Scientific #145909 for ESRβ, #145539 for ESRα, and #4390824 for GPER), and negative control (Thermo Scientific, #AM4615) were obtained commercially. […]
On the technique in general: A western blot detects proteins with antibodies after separation by electrophoresis.

The subject of assay [2] is AS iOPCs differentiated into iOLs. Put plainly: Differentiation of AS patient-derived iOPCs into iOLs (MAG, CNPase, MBP). The following applies: AC-186 10 μM or clemastine 2.5 μM, 72 hours. It is filed as cell-based, human.
The subject of assay [3] is AS iOPCs (UBE3A truncation mutation). Kind of assay: Proliferation of AS patient-derived iOPCs (EdU, Ki67). The following applies: 10 μM, 24 hours, vs vehicle. Type of assay: cell-based, human. The source says:
FIGS. 25A-25I depict the role of UBE3A via ESR-β signaling on OPC proliferation and oligodendrocyte differentiation. FIG. 25A: qPCR to evaluate the differentiation and maturation for myelination of iOPCs after persistent UBE3A knockdown, by measuring mRNA transcripts of UBE3A and myelination markers MBP and PLP1 in iOPCs treated with siNC or siUBE3A and differentiated in vitro. MBP and PLP1 mRNA expression decreased in iOLs treated with siUBE3A. n=3 independent experiments. FIG. 25B: In vitro myelination assays analyzed the effect of persistent UBE3A knockdown on iOPCs differentiation and maturation in nano-fiber-based cultures, with immunofluorescent staining of MBP (magenta) and DAPI (blue) and imaging of nano-fibers (grey). Quantification by the area (left graph) and density (right graph) of MBP fluorescent signals (normalized to siNC=1.0). MBP area and intensity decreased in cells treated with siUBE3A. n=3 experiments. Scale bar: 25 μm. […] Protein levels of ESR-β in UBE3A-deficient iOPCs and subsequently differentiated iOLs were quantified, normalized against the loading control GAPDH, and expressed relative to the iOPC+siNC control condition (set at 1.0). […] Levels of Ki67 and Myelin Associated Glycoprotein (MAG) were measured in UBE3A-deficient iOPCs and iOLs differentiated from them, normalized against GAPDH, and compared to the iOPC+siNC condition. n=4 experiments. […]

The structures appear in SMILES notation. “Also recorded” adds a separate entry of the source.

`Oc1ccc(C2(c3ccccc3F)CCC(F)(F)CC2)cc1` [AC-186]: in assay [1], the “OPC proliferation (Ki67 expression)” value was “rescues impaired proliferation; also recorded: rescued; also recorded: reversed; also recorded: rescue of OPC proliferation; also recorded: increased Ki67 expression”. For the same molecule, in assay [2], the “oligodendrocyte differentiation (MAG, CNPase, MBP)” value was “no impact on oligodendrocyte differentiation”. Also, the “ratio of EdU positive iOPCs (proliferation)” value in assay [3] (AS iOPCs) is “significantly enhanced the proliferation; also recorded: increased”. The Ki67 expression entry in assay [3] (AS-derived OPCs) is “increased Ki67 expression”.
